Test results: US10301272B2, “Carboxamide or sulfonamide substituted thiazoles and related derivatives as modulators for the orphan nuclear receptor ROR[γ]” (Phenex Pharmaceuticals AG, priority 2012, dated 2019)
Read-outs that look alike come from different tables or passages of the source.

How the values were obtained:
[1] = target: RORγ ligand binding domain (LBD) (Homo sapiens (Human), UniProt P51449); assay: TR-FRET Activity Assay (ligand sensing assay, LANCE); details: for pIC50 (FRET): TR-FRET, interaction of RORγ-LBD with coactivator peptide
RORγ = RORγ (Homo sapiens, UniProt P51449); assay: RORγ Gal4 Reporter Gene Assay; type: cell-based; details: for IC50: 293T cells
Summary of the method: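 Cells at 5×10^5/well were transfected with RORγ fragments fused to the GAL4 DNA-binding domain (CMV promoter), a 5×GAL4-site firefly luciferase reporter and CMV-Renilla luciferase for normalization. About 4 h later serum-free MEM and compound were added (vehicle ≤0.1%). Cultures at 37 °C, 5% CO2; at least triplicates.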

[2] = firefly (FF) luciferase, read-out: pIC50 (FF) (converted)
[3] = renilla normalised (RENnorm) luciferase, read-out: pIC50 (REN) (converted)

Chain of RORγ ligand binding domain (LBD) (P51449 269-508): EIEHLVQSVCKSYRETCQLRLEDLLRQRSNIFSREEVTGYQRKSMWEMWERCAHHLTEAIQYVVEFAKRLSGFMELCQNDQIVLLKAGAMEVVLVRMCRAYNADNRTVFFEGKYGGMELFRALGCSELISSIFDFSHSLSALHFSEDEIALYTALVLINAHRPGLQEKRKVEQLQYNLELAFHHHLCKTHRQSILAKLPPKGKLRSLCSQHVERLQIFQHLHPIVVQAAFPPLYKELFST
Chain of RORγ (P51449 whole entry, looked up, the tested form may be a part): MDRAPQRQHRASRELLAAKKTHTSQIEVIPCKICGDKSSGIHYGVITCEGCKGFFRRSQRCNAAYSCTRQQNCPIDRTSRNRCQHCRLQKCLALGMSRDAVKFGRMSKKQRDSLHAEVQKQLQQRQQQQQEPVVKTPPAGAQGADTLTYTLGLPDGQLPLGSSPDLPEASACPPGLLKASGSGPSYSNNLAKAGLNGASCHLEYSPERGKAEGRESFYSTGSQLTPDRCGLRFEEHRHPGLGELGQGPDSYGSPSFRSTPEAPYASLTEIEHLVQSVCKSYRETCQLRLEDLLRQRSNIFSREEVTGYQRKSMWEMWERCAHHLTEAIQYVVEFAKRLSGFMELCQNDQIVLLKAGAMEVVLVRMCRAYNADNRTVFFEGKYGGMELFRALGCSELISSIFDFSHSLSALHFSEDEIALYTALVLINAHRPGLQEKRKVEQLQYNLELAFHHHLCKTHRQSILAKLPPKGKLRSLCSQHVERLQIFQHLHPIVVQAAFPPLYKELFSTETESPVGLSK

Compound	pIC50 (FRET) [1]	pIC50 (FF) (RORγ)	pIC50 (REN) (RORγ)	IC50 (RORγ; [2])	IC50 (RORγ; [3])	IC50 [1]
CC(C)(C)NS(=O)(=O)c1ccc(-c2oc(C(=O)NC34CCC(C(=O)O)(CC3)CC4)nc2CC2CCCCC2)c2ccccc12 [100/14]	5.8/7.9/7.9	5.8/7.9/7.9	5.8/7.9/7.9	–	–	–
CC(C)(C)c1cc(-c2nc(S(N)(=O)=O)sc2CC2CCCCC2)cc(C(C)(C)C)c1 [Example 2, 5-(Cyclohexylmethyl)-4-(3,5-di-tert-butylphenyl)thiazole-2-sulfonamide]	5.9/6.1/6.0	5.9/6.1/6.0	5.9/6.1/6.0	–	–	–
CC(C)(C)NS(=O)(=O)c1ccc(-c2sc(C(=O)N[C@H]3C[C@H](C(=O)O)C3)nc2CC2CCCCC2)cc1C(F)(F)F [9/2]	6.9/8.0/8.0	6.9/8.0/8.0	6.9/8.0/8.0	–	–	–
CC1CCCCN1C(=O)c1nc(C(=O)NCC(C)(C)O)sc1-c1ccc(S(=O)(=O)NC(C)(C)C)c2ccccc12 (stereo not drawn) [304/7]	6.1/7.3/7.3	6.1/7.3/7.3	6.1/7.3/7.3	–	–	–
CC(C)(C)c1cc(-c2sc(S(=O)(=O)NC(=O)OCc3ccccc3)nc2CC2CCCCC2)cc(C2(C)CC2)c1 [Example 12, Benzyl (5-(3-(tert-butyl)-5-(1-methylcyclopropyl)phenyl)-4-(cyclohexylmethyl)thiazol-2-yl)sulfonylcarbamate]	5.5	–	–	> 20000 nM	> 20000 nM	–
CC(C)(C)c1cc(-c2nc(C(N)=O)oc2CC2CCCCC2)cc(C(C)(C)C)c1 [Example 101, 5-(Cyclohexylmethyl)-4-(3,5-di-tert-butylphenyl)oxazole-2-carboxamide]	6.0	–	–	> 20000 nM	> 20000 nM	–
C[C@H](NS(=O)(=O)c1ccc(-c2sc(C(=O)NC3CCOCC3)nc2CC2CCCCC2)c2ccccc12)C(F)(F)F [6/12]	–	–	–	2 nM	2 nM	126 nM
CC1(c2cc(Cl)cc(-c3sc(C(=O)N[C@H]4C[C@H](C(=O)O)C4)nc3CC3CCCCC3)c2)CC1 [9/9]	5.4/6.9/7.0	5.4/6.9/7.0	5.4/6.9/7.0	–	–	–
CC(C)(O)CNC(=O)c1nc(CC2CCCCC2)c(-c2ccc(S(=O)(=O)NC3(C(N)=O)CC3)c3ccccc23)s1 [8/3]	6.4/7.5/7.6	6.4/7.5/7.6	6.4/7.5/7.6	–	–	–
NS(=O)(=O)c1c(Cl)cc(-c2sc(C(=O)NC3CCOCC3)nc2CC2CCCCC2)cc1C(F)(F)F [Example 17/1]	5.6/6.1/6.5	5.6/6.1/6.5	5.6/6.1/6.5	–	–	–
CC(C)(C)NS(=O)(=O)c1ccc(-c2sc(C(=O)NC3CCS(=O)(=O)CC3)nc2-c2ccccc2)c2ccccc12 [Example 300/1]	7.2/7.8/7.9	7.2/7.8/7.9	7.2/7.8/7.9	–	–	–
CC(C)(O)CNC(=O)c1nc(CC2CCCCC2)c(-c2ccc(S(=O)(=O)NC(C)(C)C)c3ccccc23)o1 [100/7]	6.6/7.7/7.9	6.6/7.7/7.9	6.6/7.7/7.9	–	–	–
O=C(c1nc(CC2CCCCC2)c(-c2ccc(S(=O)(=O)NC3CCOCC3)c3ccccc23)s1)N1CC2(CCS(=O)(=O)CC2)C1 [21/9]	6.2/7.3/7.4	6.2/7.3/7.4	6.2/7.3/7.4	–	–	–
COCC(C)(C)NS(=O)(=O)c1ccc(-c2sc(C(=O)N3CC4(CCS(=O)(=O)CC4)C3)nc2CC2CCCCC2)c2ccccc12 [14/2]	6.5/7.4/7.4	6.5/7.4/7.4	6.5/7.4/7.4	–	–	–
O=C(N[C@H]1C[C@H](C(=O)O)C1)c1nc(CC2CCCCC2)c(-c2ccc(OC(F)(F)F)c3ccccc23)s1 [7/21]	–	–	–	126 nM	126 nM	2000 nM
CCCc1nc(C(=O)NC2CCS(=O)(=O)CC2)sc1-c1ccc(S(=O)(=O)NC(C)(C)C)c(Cl)c1Cl [300/5]	7.0/7.4/7.5	7.0/7.4/7.5	7.0/7.4/7.5	–	–	–

Compound	pIC50 (FRET) [1]	pIC50 (FF) (RORγ)	pIC50 (REN) (RORγ)	IC50 (RORγ; [2])	IC50 (RORγ; [3])	IC50 [1]
COC(c1nc(C(=O)N[C@H]2C[C@H](C(=O)O)C2)sc1-c1ccc(S(=O)(=O)NC(C)(C)C)c(C(C)(C)C)c1)C1CCCCC1 (stereo partly drawn) [Example 19, trans-3-(5-(3-(tert-Butyl)-4-(N-(tert-butyl)sulfamoyl)phenyl)-4-(cyclohexyl(methoxy)methyl)thiazole-2-carboxamido)cyclobutanecarboxylic acid]	5.4/6.4/6.6	5.4/6.4/6.6	5.4/6.4/6.6	–	–	–
CC1(c2cc(C(=O)NC3(C#N)CC3)cc(-c3sc(C(=O)NC4CCS(=O)(=O)CC4)nc3CC3CCCCC3)c2)CC1 [10/2]	6.6/7.3/7.4	6.6/7.3/7.4	6.6/7.3/7.4	–	–	–
CC(C)(C)NS(=O)(=O)c1ccc(-c2sc(C(=O)N[C@H]3C[C@H](C(=O)O)C3)nc2CC2CCCCC2)c2c(F)cccc12 [19/9]	6.3/7.0/7.1	6.3/7.0/7.1	6.3/7.0/7.1	–	–	–
CC(C)(C)NS(=O)(=O)c1ccc(-c2oc(C(=O)N3CC4(CCOCC4)C3)nc2CC2CCCCC2)c2ccccc12 [100/10]	6.4/7.2/7.4	6.4/7.2/7.4	6.4/7.2/7.4	–	–	–
CC(C)(C)c1cc(-c2nc(C(=O)NC3COC3)ncc2CC2CCCCC2)cc(C(C)(C)C)c1 [Example 207, 5-(Cyclohexylmethyl)-4-(3,5-di-tert-butylphenyl)-N-(oxetan-3-yl)pyrimidine-2-carboxamide]	5.4/6.4/6.5	5.4/6.4/6.5	5.4/6.4/6.5	–	–	–
CC(C)(C)NS(=O)(=O)c1ccc(-c2oc(C(=O)N[C@H]3C[C@H](C(=O)NS(C)(=O)=O)C3)nc2CC2CCCCC2)c2ccccc12 [Example 102/1]	6.1/6.7/6.7	6.1/6.7/6.7	6.1/6.7/6.7	–	–	–
CC(C)(C)NS(=O)(=O)c1ccc(-c2sc(C(=O)N3CC4(CC[S+]([O-])CC4)C3)nc2CC2CCCCC2)c2ccccc12 [15/9]	6.4/7.8/7.9	6.4/7.8/7.9	6.4/7.8/7.9	–	–	–
COC(c1nc(C(=O)NC2CCOCC2)sc1-c1ccc(S(=O)(=O)NC(C)(C)C)c(C(C)(C)C)c1)C1CCCCC1 (stereo not drawn) [Example 19/1]	6.1/6.7/6.7	6.1/6.7/6.7	6.1/6.7/6.7	–	–	–
CC(C)(C)NS(=O)(=O)c1ccc(-c2sc(C(=O)N3CC4(COC4)C3)nc2CC2CCCCC2)c(Cl)c1Cl [6/33]	6.6/7.9/8.0	6.6/7.9/8.0	6.6/7.9/8.0	–	–	–
CC(C)(O)CNC(=O)c1nc(CC2CCCCC2)c(-c2ccc(S(N)(=O)=O)c(Cl)c2Cl)s1 [Example 17, 4-(Cyclohexylmethyl)-5-(2,3-dichloro-4-sulfamoylphenyl)-N-(2-hydroxy-2-methylpropyl)thiazole-2-carboxamide]	5.0	–	–	> 20000 nM	> 20000 nM	–
CC(C)(C)c1cc(-c2sc(C(=O)N[C@H]3C[C@H](C(=O)O)C3)nc2CC2CCCCC2)cc(C(C)(C)C)[n+]1[O-] [8/9]	–	–	–	126 nM	126 nM	794 nM
CC(C)(C)c1cc(-c2sc(C(=O)NC3CCOCC3)nc2CC2CCCCC2)cc(C2(C)CC2)c1 [Example 8, 5-(3-(tert-Butyl)-5-(1-methylcyclopropyl)phenyl)-4-(cyclohexylmethyl)-N-(tetrahydro-2H-pyran-4-yl)thiazole-2-carboxamide]	7.0/7.3/7.5	7.0/7.3/7.5	7.0/7.3/7.5	–	–	–
COC(C)(C)c1cc(-c2sc(C(=O)N[C@H]3C[C@H](C(=O)O)C3)nc2CC2CCCCC2)cc(C2(C)CC2)c1 [9/5]	6.7/7.8/7.9	6.7/7.8/7.9	6.7/7.8/7.9	–	–	–
CC(C)(C)c1cc(-c2sc(C(N)=O)nc2CC2CCCCC2)cc(C(C)(C)C)c1 [Example 5, 4-(Cyclohexylmethyl)-5-(3,5-di-tert-butylphenyl)thiazole-2-carboxamide]	6.7/6.3/6.1	6.7/6.3/6.1	6.7/6.3/6.1	–	–	–
CC(C)(C)NS(=O)(=O)c1ccc(-c2sc(C(=O)NC3CCS(=O)(=O)CC3)nc2CC2CCCCC2)c2ccncc12 [21/13]	6.3/7.9/7.9	6.3/7.9/7.9	6.3/7.9/7.9	–	–	–
CC(C)(C)NS(=O)(=O)c1ccc(-c2sc(C(=O)NCCC(C)(C)C(=O)O)nc2CC2CCCCC2)c(Cl)c1Cl [6/39]	6.4/8.2/8.2	6.4/8.2/8.2	6.4/8.2/8.2	–	–	–
